Results published in US20260028364A1, “CATIONIC CHROMENONES AND THEIR USE IN ONCOLOGY” (FLORATEK PHARMA S.A., priority 2022, published 2026).

Experiments:
U87MG = assay: CellTiter-Glo cell viability, U87MG; assay type: cell-based; conditions: U87MG cells, 72 h with compound
Procedure: (§1) Antitumor activity against a panel of cancer cell lines Antitumor activity of the compounds was assessed by using the CellTiter-Glow® Luminescent Cell Viability assay (Promega #G7572) according to the manufacturer's instructions. The compounds were tested at 5 or 6 concentrations in 1:2 dilution increments (highest concentration 10 µM) in triplicate well conditions.
(§2) Tumor cells were grown at 37° C. in a humidified atmosphere with 5% CO2 in RPMI 1640 or DMEM medium, supplemented with 10% (v/v) fetal calf serum and 50 μg/ml gentamicin for up to 20 passages, and were passaged once or twice weekly. Cells were harvested using TrypLE or PBS buffer containing 1 mM EDTA, and the percentage of viable cells is determined using a cell counter.
(§3) Cells were harvested from exponential phase cultures, counted and plated in 96 well flat-bottom microtiter plates at a cell density depending on the cell line's growth rate (4,000-20,000 cells/well depending on the cell line's growth rate) in RPMI 1640 or DMEM medium supplemented with 10% (v/v) fetal calf serum and 50 μg/ml gentamicin (140 μl/well). Cultures were incubated at 37° C. and 5% CO2 in a humidified atmosphere. After 24 h, 10 μl of test compounds or control medium are added, and left on the cells for another 72 h. Compounds were serially diluted in DMSO, transferred in cell culture medium, and added to the assay plates. The DMSO concentration was kept constant at <0.2% v/v across the assay plate. Viability of cells was quantified by the CellTiter-Glow® Luminescent Cell Viability assay (Promega #G7572). Luminescence was measured with the microplate luminometer (En Vision Perkin Elmer).
(§4) Sigmoidal concentration-response curves were fitted to the data points (test-versus-control, T/C values) obtained for each tumor model using Graph Pad prism 5.02 software. IC50 values are reported as absolute IC50 values, being the concentration of test compound at the intersection of the concentration-response curves with T/C=50%.

SK-Mel-5 = assay: CellTiter-Glo cell viability, SK-Mel-5; assay type: cell-based; conditions: SK-Mel-5 cells, 72 h with compound
Procedure: as §1, §2, §3, §4

[1] = tested on: A2058 melanoma tumor cells; assay: In vivo tumour inhibition, A2058 melanoma xenograft; parameters: species or system Balb-c/nude mouse; conditions: for T/C / TGI: Example 5, 12 mg/kg, day 20 after treatment start; for activity in inhibiting A2058 melanoma cell line in vivo: nude mouse xenograft model of melanoma
Procedure: The A2058 tumor cells were maintained in vitro in DMEM medium supplemented with 10% fetal bovine serum and 1% Anti-Anti at 37° C. in an atmosphere of 5% CO2 in air. The tumor cells were routinely subcultured twice weekly.
Each Balb-c/nude mouse was inoculated subcutaneously at the right flank with A2058 melanoma tumor cells (5×10^6+Matrigel) in 0.2 ml of PBS for tumor development. 10 animals per group were randomized when the average tumor volume reached 74 mm^3. Test compounds were prepared as DMSO stocks and diluted in the injection vehicle before administration. The treatment was administered every other day (QOD) as a peritumoral injection. Vehicle composition was 4% DMSO, 5% ethanol, 20% PEG200, 71% saline. Dosing volume for all groups: 5 mL/kg.
Tumor volume was measured twice weekly in two dimensions using a caliper, and the volume was expressed in mm^3 using the formula: V=0.5a×b^2 where a and b are the long and short diameters of the tumor, respectively. The tumor size was then used for calculations of T/C value: The T/C value (in percent) is an indication of antitumor effectiveness; T and Care the mean volumes of the treated and control groups, respectively, on a given day.
One-way ANOVA was performed to compare tumor volume among treated groups and vehicle group, all data were analyzed using GraphPad Prism 5.0. p<0.05 was considered to be statistically significant.

NCI-H1299 = assay: CellTiter-Glo cell viability, NCI-H1299; assay type: cell-based; conditions: H1299 cells, 72 h with compound
Procedure: as §1, §2, §3, §4

H69 = assay: CellTiter-Glo cell viability, H69; assay type: cell-based; conditions: H69 cells, 72 h with compound
Procedure: as §1, §2, §3, §4

22Rv1 = assay: CellTiter-Glo cell viability, 22Rv1; assay type: cell-based; conditions: 22Rv1 cells, 72 h with compound
Procedure: as §1, §2, §3, §4

HCC-15 = assay: CellTiter-Glo cell viability, HCC-15; assay type: cell-based; conditions: HCC-15 cells, 72 h with compound
Procedure: as §1, §2, §3, §4

BxPC-3 = assay: CellTiter-Glo cell viability, BxPC-3; assay type: cell-based; conditions: BxPC-3 cells, 72 h with compound
Procedure: as §1, §2, §3, §4

A2058 = assay: CellTiter-Glo cell viability, A2058; assay type: cell-based; conditions: A2058 cells, 72 h with compound
Procedure: as §1, §2, §3, §4

SK-N-SH = assay: CellTiter-Glo cell viability, SK-N-SH; assay type: cell-based; conditions: SK-N-SH cells, 72 h with compound
Procedure: as §1, §2, §3, §4

MCF-7 = assay: CellTiter-Glo cell viability, MCF-7; assay type: cell-based; conditions: MCF-7 cells, 72 h with compound
Procedure: as §1, §2, §3, §4

MIA-PaCa-2 = assay: CellTiter-Glo cell viability, MIA-PaCa-2; assay type: cell-based; conditions: MIA-PaCa-2 cells, 72 h with compound
Procedure: as §1, §2, §3, §4

A375 = assay: CellTiter-Glo cell viability, A375; assay type: cell-based; conditions: A375 cells, 72 h with compound
Procedure: as §1, §2, §3, §4

A-673 = assay: CellTiter-Glo cell viability, A-673; assay type: cell-based; conditions: A-673 cells, 72 h with compound
Procedure: as §1, §2, §3, §4

HepG2 = assay: CellTiter-Glo cell viability, HepG2; assay type: cell-based; conditions: HepG2 cells, 72 h with compound
Procedure: as §1, §2, §3, §4

NFKB = assay: SelectScreen CellSensor pathway inhibition, NFKB; assay type: cell-based; conditions: NFKB-bla Jurkat, stimulus TNF-alpha
Procedure: Inhibition of various cellular pathways known to be involved in malignancy was tested using the SelectScreen Cell-based Pathway Profiling GeneBLAzer™ cell signaling pathway specific CellSensor™ cell lines ((Thermo Fisher). The assay is based on a beta-lactamase reporter activity which is modulated and can be measured quantitatively and selectively with the LiveBLAzer™-FRET B/G Loading Substrate. SelectScreen Cell-Based Pathway Profiling Service uses XLfit from IDBS. The dose response curve is curve fit to model number 205 (sigmoidal dose-response model). Custom logic was built by Thermo Fisher for the data analysis tool to address the different compound characteristics that can be observed with functional assays.
NFKB—NFKB-bla Jurkat—Inhibitor Screen, Activated by TNF-Alpha
NFKB-bla Jurkat cells are thawed and resuspended in Assay Media (DMEM, 10% dialyzed FBS, 25 mM HEPES pH 7.3, 0.1 mM NEAA, 100 U/mL/100 μg/mL Pen/Strep) to a concentration of 625,000 cells/mL. […] 4 μL of 10×control activator TNF-alpha at the pre-determined EC80 concentration is added to wells containing the control inhibitor or compounds.
The plate is incubated for 5 hours at 37° C./5% CO2 in a humidified incubator. […] The plate is read on a fluorescence plate reader.

MOLT-4 = assay: CellTiter-Glo cell viability, MOLT-4; assay type: cell-based; conditions: Homo sapiens; MOLT-4 cells, 72 h with compound
Procedure: as §1, §2
as §3, with “After 24 h, 10 μl of test compounds or control medium are added, and left on the cells for another 72 h. Compounds were serially diluted in DMSO, transferred in cell culture medium, and added to the assay plates. The DMSO concentration was kept constant at <0.2% v/v across the assay plate.” left out, “Elmer). […]” for “Elmer).”

Raji = assay: CellTiter-Glo cell viability, Raji; assay type: cell-based; conditions: Homo sapiens; Raji cells, 72 h with compound
Procedure: as §1, §2
as §3, with “After 24 h, 10 μl of test compounds or control medium are added, and left on the cells for another 72 h. Compounds were serially diluted in DMSO, transferred in cell culture medium, and added to the assay plates. The DMSO concentration was kept constant at <0.2% v/v across the assay plate.” left out, “Elmer). […]” for “Elmer).”

Row | SMILES | IC50 (U87MG) [nM] | IC50 (SK-Mel-5) [nM] | T/C [1] [%] | TGI [1] [%] | activity in inhibiting A2058 melanoma cell line in vivo [1] | IC50 (NCI-H1299) [nM] | IC50 (H69) [nM] | IC50 (22Rv1) [nM] | IC50 (HCC-15) [nM] | IC50 (BxPC-3) [nM] | IC50 (A2058) [nM] | IC50 (SK-N-SH) [nM] | IC50 (MCF-7) [nM] | IC50 (MIA-PaCa-2) [nM] | IC50 (A375) [nM] | IC50 (A-673) [nM] | IC50 (HepG2) [nM] | IC50 (A-673; Homo sapiens, A673) [nM] | further results
1 | COc1ccc2c(=O)c(-c3ccc(CCCCCCCCCC[P+](c4ccccc4)(c4ccccc4)c4ccccc4)cc3)coc2c1OC.[Cl-] [SND479] | 240 | 110 | 33.5 | 70.0 | significant activity | 200 | 230 | 170 | 190 | 220 | 190 | 210 | 170 | 110 | 210 | 440 | 440 |  | 
2 | CC1=C(CO)C(=O)O[C@@H]([C@@H](C)[C@H]2CC[C@H]3[C@@H]4C[C@H]5O[C@]56[C@@H](O)C=CC(=O)[C@]6(C)[C@H]4CC[C@]23C)C1 [Withaferin A, reference compound] |  |  |  |  |  |  |  |  |  |  |  |  |  |  |  |  |  |  | IC50 (NFKB): 240 nM
3 | O=c1c(-c2ccc(CCCC[P+](c3ccccc3)(c3ccccc3)c3ccccc3)cc2)coc2c(O)c(O)ccc12 [SND490, (4-(4-(7,8-Dihydroxy-4-oxo-4H-chromen-3-yl)phenyl)butyl)triphenylphosphonium bromide] |  |  |  |  |  |  |  |  |  |  |  |  |  |  |  |  |  | 1950 | IC50 (MOLT-4): 560 nM
4 | COc1ccc2c(=O)c(-c3ccc(CCCCCC[P+](c4ccccc4)(c4ccccc4)c4ccccc4)cc3)coc2c1OC.[Cl-] [SND477] | 320 | 160 | 35.6 | 68.7 | significant activity | 310 | 230 | 110 | 240 | 260 | 240 | 550 | 210 | 200 | 210 | 600 | 660 |  | 
5 | COc1c(O)ccc2c(=O)c(-c3ccc(CCCC[P+](c4ccccc4)(c4ccccc4)c4ccccc4)cc3)coc12 [SND530, (4-(4-(7-Hydroxy-8-methoxy-4-oxo-4H-chromen-3-yl)phenyl)butyl)triphenylphosphonium bromide] |  |  |  |  |  |  |  |  |  |  |  |  |  |  |  |  |  | 500 | IC50 (U87MG; Homo sapiens, U-87 MG): 1900 nM; IC50 (SK-Mel-5; Homo sapiens): 1100 nM; IC50 (NCI-H1299; Homo sapiens, NCI-H1299): 1400 nM; IC50 (Raji): 140 nM; IC50 (HCC-15; HCC15): 3700 nM; IC50 (MCF-7; Homo sapiens, MCF7): 1000 nM; IC50 (MIA-PaCa-2; Homo sapiens): 1200 nM; IC50 (A375; Homo sapiens, A-375): 1500 nM
